In US8008291B2 (Mimetica Pty Ltd, priority 2008, dated 2011):
pIC50: −log10 of the molar value.

Each molecule was assayed against T1, human MC5R (hMC5R) (Homo sapiens, UniProt P33032) (assay: Human MC5R radioligand binding assay (membranes, [125I] NDP-MSH displacement)). Conditions: hMC5R binding; tested as trifluoroacetate or hydrochloride salts, or free bases; read-out: MC5R radioligand IC50.
T1 construct: purchased Perkin Elmer RBXMC5M400UA
Procedure, shortened: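 Frozen human MC5R membranes incubated with test compound and in-house iodogen-labeled, HPLC-purified [125I]NDP-MSH for 1 hr at 37° C. Binding measured as displacement of the radioligand.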

T1 sequence (P33032 whole entry): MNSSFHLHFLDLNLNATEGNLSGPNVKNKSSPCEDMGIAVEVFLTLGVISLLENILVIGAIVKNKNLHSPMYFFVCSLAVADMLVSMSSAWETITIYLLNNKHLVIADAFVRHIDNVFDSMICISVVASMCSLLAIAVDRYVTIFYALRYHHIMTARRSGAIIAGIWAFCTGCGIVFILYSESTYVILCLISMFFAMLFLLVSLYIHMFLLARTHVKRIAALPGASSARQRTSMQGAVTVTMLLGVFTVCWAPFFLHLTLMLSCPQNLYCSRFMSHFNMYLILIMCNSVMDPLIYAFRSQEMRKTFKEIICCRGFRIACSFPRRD

SMILES	pIC50
CC[C@H](CN1CCC(CNC(=O)c2ccc3cc(Cl)ccc3c2)NC(C2CCN(CCC(C)C)CC2)C1=O)c1ccccc1 (stereo partly drawn) [Compound 448]	> 7.00
CC[C@H](CN1CC[C@@H](CNC(=O)c2ccc(Cl)c(Cl)c2)N[C@@H](CCN2CC(C)CC(C)C2)C1=O)c1ccccc1 (stereo partly drawn) [Compound 449, 3,4-dichloro-N-(((3S,5S)-3-(2-(3,5-dimethylpiperidin-1-yl)ethyl)-2-oxo-1-((S)-2-phenylbutyl)-1,4-diazepan-5-yl)methyl)benzamide]	> 7.00
CC[C@H](CN1CC[C@@H](CNC(=O)c2ccc(Cl)c(Cl)c2)N[C@@H](CCN2CCC(O)CC2)C1=O)c1ccccc1 [Compound 450, 3,4-dichloro-N-(((3S,5S)-3-(2-(4-hydroxypiperidin-1-yl)ethyl)-2-oxo-1-((S)-2-phenylbutyl)-1,4-diazepan-5-yl)methyl)benzamide]	> 7.00
CC[C@H](CN1CC[C@@H](CNC(=O)c2ccc(Cl)c(Cl)c2)N[C@@H](CCN2CCC(C(=O)O)CC2)C1=O)c1ccccc1 [Compound 451, 1-(2-((2S,7S)-7-((3,4-dichlorobenzamido)methyl)-3-oxo-4-((S)-2-phenylbutyl)-1,4-diazepan-2-yl)ethyl)piperidine-4-carboxylic acid]	> 7.00
CC[C@H](CN1CC[C@@H](CNC(=O)c2ccc(Cl)c(Cl)c2)N[C@@H](CCN2CCCCCC2)C1=O)c1ccccc1 [Compound 452, N-(((3S,5S)-3-(2-(azepan-1-yl)ethyl)-2-oxo-1-((S)-2-phenylbutyl)-1,4-diazepan-5-yl)methyl)-3,4-dichlorobenzamide]	> 7.00
CC[C@H](CN1CC[C@@H](CNC(=O)c2ccc(Cl)c(Cl)c2)N[C@@H](CCN2CCCC[C@@H]2C)C1=O)c1ccccc1 [Compound 453, 3,4-dichloro-N-(((3S,5S)-3-(2-((S)-2-methylpiperidin-1-yl)ethyl)-2-oxo-1-((S)-2-phenylbutyl)-1,4-diazepan-5-yl)methyl)benzamide]	> 8.00
CC[C@H](CN1CC[C@@H](CNC(=O)c2ccc(Cl)c(Cl)c2)N[C@@H](CCN(C)C(C)(C)C)C1=O)c1ccccc1 [Compound 454, N-(((3S,5S)-3-(2-(tert-butyl(methyl)amino)ethyl)-2-oxo-1-((S)-2-phenylbutyl)-1,4-diazepan-5-yl)methyl)-3,4-dichlorobenzamide]	> 7.00
CC[C@H](CN1CCC(CNC(=O)c2ccc3cc(Cl)ccc3c2)NC(C2CCN(CC)CC2)C1=O)c1ccccc1 (stereo partly drawn) [Compound 455, 6-chloro-N-((3-(1-ethylpiperidin-4-yl)-2-oxo-1-((S)-2-phenylbutyl)-1,4-diazepan-5-yl)methyl)-2-naphthamide]	> 7.00
O=C1[C@H](CCN2CCCCC2)N[C@H](CNCc2ccc(Cl)c(Cl)c2)CCN1CC(c1ccccc1)c1ccccc1 [Compound 456, (3S,5S)-5-((3,4-dichlorobenzylamino)methyl)-1-(2,2-diphenylethyl)-3-(2-(piperidin-1-yl)ethyl)-1,4-diazepan-2-one]	> 7.00
CC[C@H](CN1CC[C@@H](CNC(=O)c2ccc3cc(Cl)ccc3c2)N[C@@H](CCNC(=N)N)C1=O)c1ccccc1 [Compound 457, 6-chloro-N-(((3S,5S)-3-(2-guanidinoethyl)-2-oxo-1-((S)-2-phenylbutyl)-1,4-diazepan-5-yl)methyl)-2-naphthamide]	> 7.00
CC[C@H](CN1CC[C@@H](CNC(=O)c2ccc3cc(Cl)ccc3c2)N[C@@H](CCNC(=N)NC)C1=O)c1ccccc1 [Compound 458, 6-chloro-N-(((3S,5S)-3-(2-(3-methylguanidino)ethyl)-2-oxo-1-((S)-2-phenylbutyl)-1,4-diazepan-5-yl)methyl)-2-naphthamide]	> 7.00
CC[C@@H](CN1CC[C@@H](CNC(=O)c2ccc(Cl)c(Cl)c2)N[C@@H](CCN2CCCCC2)C1=O)C(C)C [Compound 461, 3,4-dichloro-N-(((3S,5S)-1-((R)-2-ethyl-3-methylbutyl)-2-oxo-3-(2-(piperidin-1-yl)ethyl)-1,4-diazepan-5-yl)methyl)benzamide]	> 7.00
CC[C@H](CN1CC[C@@H](CNC(=O)c2ccc(Cl)c(Cl)c2)N[C@@H](CCN2CCCCC2)C1=O)C(C)C [Compound 462, 3,4-dichloro-N-(((3S,5S)-1-((S)-2-ethyl-3-methylbutyl)-2-oxo-3-(2-(piperidin-1-yl)ethyl)-1,4-diazepan-5-yl)methyl)benzamide]	> 7.00
CC[C@H](CN1CC[C@@H](CNC(=O)c2ccc3cc(Cl)ccc3c2)N[C@@H](CC(C)(C)N)C1=O)c1ccccc1 [Compound 463, N-(((3S,5S)-3-(2-amino-2-methylpropyl)-2-oxo-1-((S)-2-phenylbutyl)-1,4-diazepan-5-yl)methyl)-6-chloro-2-naphthamide]	> 6.00
CC[C@H](CN1CC[C@@H](CNC(=O)c2ccc(Cl)c(Cl)c2)N[C@@H](CCN)C1=O)c1ccccc1 [Compound 464, N-(((3S,5S)-3-(2-aminoethyl)-2-oxo-1-((S)-2-phenylbutyl)-1,4-diazepan-5-yl)methyl)-3,4-dichlorobenzamide]	> 6.00
CC[C@H](CN1CC[C@@H](CNC(=O)c2ccc(Cl)c(Cl)c2)N[C@@H](CCNC(C)C)C1=O)c1ccccc1 [Compound 465, 3,4-dichloro-N-(((3S,5S)-3-(2-(isopropylamino)ethyl)-2-oxo-1-((S)-2-phenylbutyl)-1,4-diazepan-5-yl)methyl)benzamide]	> 7.00
NCC[C@@H]1N[C@H](CNC(=O)c2ccc3cc(Cl)ccc3c2)CCN(Cc2cc(Cl)cc(Cl)c2)C1=O [Compound 466, N-(((3S,5S)-3-(2-aminoethyl)-1-(3,5-dichlorobenzyl)-2-oxo-1,4-diazepan-5-yl)methyl)-6-chloro-2-naphthamide]	> 7.00
O=C(NC[C@@H]1CCN(Cc2cc(Cl)cc(Cl)c2)C(=O)[C@H](CCN2CCCCC2)N1)c1ccc2cc(Cl)ccc2c1 [Compound 467, 6-chloro-N-(((3S,5S)-1-(3,5-dichlorobenzyl)-2-oxo-3-(2-(piperidin-1-yl)ethyl)-1,4-diazepan-5-yl)methyl)-2-naphthamide]	> 7.00
CC[C@@H](CN1CC[C@@H](CNC(=O)c2ccc3cc(Cl)ccc3c2)N[C@@H](CCN)C1=O)C(C)C [Compound 469, N-(((3S,5S)-3-(2-aminoethyl)-1-((R)-2-ethyl-3-methylbutyl)-2-oxo-1,4-diazepan-5-yl)methyl)-6-chloro-2-naphthamide]	> 6.00

The next lines start with the values.

pIC50	SMILES
> 6.00	CC[C@H](CN1CC[C@@H](CNC(=O)c2ccc3cc(Cl)ccc3c2)N[C@@H](CCN)C1=O)C(C)C [Compound 470, N-(((3S,5S)-3-(2-aminoethyl)-1-((S)-2-ethyl-3-methylbutyl)-2-oxo-1,4-diazepan-5-yl)methyl)-6-chloro-2-naphthamide]
> 7.00	CC[C@@H](CN1CC[C@@H](CNC(=O)c2ccc3cc(Cl)ccc3c2)N[C@@H](CCN2CCCCC2)C1=O)C(C)C [Compound 471, 6-chloro-N-(((3S,5S)-1-((R)-2-ethyl-3-methylbutyl)-2-oxo-3-(2-(piperidin-1-yl)ethyl)-1,4-diazepan-5-yl)methyl)-2-naphthamide]
> 7.00	CC[C@H](CN1CC[C@@H](CNC(=O)c2ccc3cc(Cl)ccc3c2)N[C@@H](CCN2CCCCC2)C1=O)C(C)C [Compound 472, 6-chloro-N-(((3S,5S)-1-((S)-2-ethyl-3-methylbutyl)-2-oxo-3-(2-(piperidin-1-yl)ethyl)-1,4-diazepan-5-yl)methyl)-2-naphthamide]
> 6.00	O=C(O)c1ccc2cc(C(=O)NC[C@@H]3CCN(CC(c4ccccc4)c4ccccc4)C(=O)[C@H](CCN4CCCCC4)N3)ccc2c1 [Compound 473, 6-(((3S,5S)-1-(2,2-diphenylethyl)-2-oxo-3-(2-(piperidin-1-yl)ethyl)-1,4-diazepan-5-yl)methylcarbamoyl)-2-naphthoic acid]
> 8.00	CC[C@H](CN1CC[C@@H](CNC(=O)c2ccc3cc(Cl)ccc3c2)N[C@@H](CCNC(=N)NC(C)C)C1=O)c1ccccc1 [Compound 474, 6-chloro-N-(((3S,5S)-3-(2-(3-isopropylguanidino)ethyl)-2-oxo-1-((S)-2-phenylbutyl)-1,4-diazepan-5-yl)methyl)-2-naphthamide]
> 5.00	C=C(C)C(CC)CN1CC[C@@H](CNC(=O)c2ccc(Cl)c(Cl)c2)N[C@@H](CCN)C1=O (stereo partly drawn) [Compound 475, N-(((3S,5S)-3-(2-aminoethyl)-1-(2-ethyl-3-methylbut-3-enyl)-2-oxo-1,4-diazepan-5-yl)methyl)-3,4-dichlorobenzamide]
> 6.00	C=C(C)C(CC)CN1CC[C@@H](CNC(=O)c2ccc(Cl)c(Cl)c2)N[C@@H](CCN2CCCCC2)C1=O (stereo partly drawn) [Compound 476, 3,4-dichloro-N-(((3S,5S)-1-(2-ethyl-3-methylbut-3-enyl)-2-oxo-3-(2-(piperidin-1-yl)ethyl)-1,4-diazepan-5-yl)methyl)benzamide]
> 8.00	C=C(C)C(CC)CN1CC[C@@H](CNC(=O)c2ccc3cc(Cl)ccc3c2)N[C@@H](CCN)C1=O (stereo partly drawn) [Compound 477, N-(((3S,5S)-3-(2-aminoethyl)-1-(2-ethyl-3-methylbut-3-enyl)-2-oxo-1,4-diazepan-5-yl)methyl)-6-chloro-2-naphthamide]
> 7.00	C=C(C)[C@@H](CC)CN1CC[C@@H](CNC(=O)c2ccc3cc(Cl)ccc3c2)N[C@@H](CCN2CCCCC2)C1=O [Compound 478, 6-chloro-N-(((3S,5S)-1-((R)-2-ethyl-3-methylbut-3-enyl)-2-oxo-3-(2-(piperidin-1-yl)ethyl)-1,4-diazepan-5-yl)methyl)-2-naphthamide]
> 8.00	C=C(C)[C@H](CC)CN1CC[C@@H](CNC(=O)c2ccc3cc(Cl)ccc3c2)N[C@@H](CCN2CCCCC2)C1=O [Compound 479, 6-chloro-N-(((3S,5S)-1-((S)-2-ethyl-3-methylbut-3-enyl)-2-oxo-3-(2-(piperidin-1-yl)ethyl)-1,4-diazepan-5-yl)methyl)-2-naphthamide]
> 6.00	N=C(N)NCCC[C@@H]1N[C@H](CNC(=O)c2ccc(-c3ccccc3)cc2)CCN(CC2CCCCC2)C1=O [Compound 480, N-(((3S,5S)-1-(cyclohexylmethyl)-3-(3-guanidinopropyl)-2-oxo-1,4-diazepan-5-yl)methyl)biphenyl-4-carboxamide]
